{"source": "PubChem BioAssay (NCI)", "test_in_all_cases": "NCI tumour cell line growth inhibition, 48 h", "key": {"NCI-H226 lung": {"test_system": "NCI-H226 lung"}, "SF-295 CNS": {"test_system": "SF-295 CNS"}, "HCT-15 colon": {"test_system": "HCT-15 colon"}, "M14 melanoma": {"test_system": "M14 melanoma"}, "SNB-19 CNS": {"test_system": "SNB-19 CNS"}, "OVCAR-5 ovarian": {"test_system": "OVCAR-5 ovarian"}, "UACC-62 melanoma": {"test_system": "UACC-62 melanoma"}, "MDA-N": {"test_system": "MDA-N"}, "OVCAR-3 ovarian": {"test_system": "OVCAR-3 ovarian"}, "NCI-H460 lung": {"test_system": "NCI-H460 lung"}, "SR leukemia": {"test_system": "SR leukemia"}, "SK-MEL-5 melanoma": {"test_system": "SK-MEL-5 melanoma"}, "T-47D breast": {"test_system": "T-47D breast"}, "RXF 393 renal": {"test_system": "RXF 393 renal"}, "A549 NSCLC": {"test_system": "A549 NSCLC"}, "CAKI-1 renal": {"test_system": "CAKI-1 renal"}, "NCI-H522 lung": {"test_system": "NCI-H522 lung"}, "COLO 205 colon": {"test_system": "COLO 205 colon"}, "NCI-H23 lung": {"test_system": "NCI-H23 lung"}, "SK-MEL-28 melanoma": {"test_system": "SK-MEL-28 melanoma"}, "SF-268 CNS": {"test_system": "SF-268 CNS"}, "LOX IMVI melanoma": {"test_system": "LOX IMVI melanoma"}, "CCRF-CEM leukemia": {"test_system": "CCRF-CEM leukemia"}, "MCF7 breast": {"test_system": "MCF7 breast"}, "MDA-MB-231 breast": {"test_system": "MDA-MB-231 breast"}, "KM12 colon": {"test_system": "KM12 colon"}, "UO-31 renal": {"test_system": "UO-31 renal"}, "NCI/ADR-RES ovarian": {"test_system": "NCI/ADR-RES ovarian"}, "IGROV1 ovarian": {"test_system": "IGROV1 ovarian"}, "SF-539 CNS": {"test_system": "SF-539 CNS"}, "TK-10 renal": {"test_system": "TK-10 renal"}, "HS 578T breast": {"test_system": "HS 578T breast"}, "HOP-62 NSCLC": {"test_system": "HOP-62 NSCLC"}, "HT29 colon": {"test_system": "HT29 colon"}, "DU-145 prostate": {"test_system": "DU-145 prostate"}, "SN12C renal": {"test_system": "SN12C renal"}, "OVCAR-4 ovarian": {"test_system": "OVCAR-4 ovarian"}, "SK-MEL-2 melanoma": {"test_system": "SK-MEL-2 melanoma"}, "A498 renal": {"test_system": "A498 renal"}, "U251 CNS": {"test_system": "U251 CNS"}, "PC-3 prostate": {"test_system": "PC-3 prostate"}, "SK-OV-3 ovarian": {"test_system": "SK-OV-3 ovarian"}, "BT-549 breast": {"test_system": "BT-549 breast"}, "786-0 renal": {"test_system": "786-0 renal"}, "MALME-3M melanoma": {"test_system": "MALME-3M melanoma"}, "K-562 leukemia": {"test_system": "K-562 leukemia"}, "MOLT-4 leukemia": {"test_system": "MOLT-4 leukemia"}, "HCT-116 colon": {"test_system": "HCT-116 colon"}, "EKVX NSCLC": {"test_system": "EKVX NSCLC"}, "HCC-2998 colon": {"test_system": "HCC-2998 colon"}, "OVCAR-8 ovarian": {"test_system": "OVCAR-8 ovarian"}, "HL-60(TB) leukemia": {"test_system": "HL-60(TB) leukemia"}, "HOP-92 NSCLC": {"test_system": "HOP-92 NSCLC"}, "MDA-MB-435": {"test_system": "MDA-MB-435"}, "ACHN renal": {"test_system": "ACHN renal"}, "UACC-257 melanoma": {"test_system": "UACC-257 melanoma"}, "SNB-75 CNS": {"test_system": "SNB-75 CNS"}, "SW-620 colon": {"test_system": "SW-620 colon"}}, "note": "Values joined by “and” are separate entries in the source; they are usually repeats but may differ in a detail not shown here. Equal entries are not always repeated.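 These data come from cells grown in 96-well plates and exposed to compound for 48 hours at five concentrations. The concentration for 50% growth inhibition is given as GI50. TGI denotes the concentration required for complete inhibition of growth.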"}
{"smiles": "COC1C(O)=C2C(=O)OC(C)(O)/C=C/C=C\\C=C/C=C/C(c3ccccc3)NC(=O)/C=C/C=C/C=C/C=C/C2(C)C1O", "note": "(stereo unspecified)", "values": [{"measurement": "TGI", "setting": "NCI-H226 lung", "value": 0.156, "unit": "µM"}, {"measurement": "GI50", "setting": "SF-295 CNS", "value": 0.0296, "unit": "µM"}, {"measurement": "TGI", "setting": "SF-295 CNS", "value": "0.0747 µM and 0.206 µM"}, {"measurement": "TGI", "setting": "HCT-15 colon", "value": 0.0526, "unit": "µM"}, {"measurement": "GI50", "setting": "M14 melanoma", "value": 0.0536, "unit": "µM"}, {"measurement": "TGI", "setting": "M14 melanoma", "value": "0.447 µM and 0.19 µM"}, {"measurement": "GI50", "setting": "SNB-19 CNS", "value": 0.0133, "unit": "µM"}, {"measurement": "TGI", "setting": "SNB-19 CNS", "value": "0.239 µM and 0.112 µM"}, {"measurement": "GI50", "setting": "OVCAR-5 ovarian", "value": 0.0649, "unit": "µM"}, {"measurement": "TGI", "setting": "OVCAR-5 ovarian", "value": "0.566 µM and 0.224 µM"}, {"measurement": "TGI", "setting": "UACC-62 melanoma", "value": 0.258, "unit": "µM"}, {"measurement": "GI50", "setting": "MDA-N", "value": 0.0329, "unit": "µM"}, {"measurement": "TGI", "setting": "MDA-N", "value": "0.141 µM and 0.17 µM"}, {"measurement": "GI50", "setting": "OVCAR-3 ovarian", "value": 0.114, "unit": "µM"}, {"measurement": "TGI", "setting": "OVCAR-3 ovarian", "value": "0.218 µM and 0.349 µM"}, {"measurement": "TGI", "setting": "NCI-H460 lung", "value": "0.0149 µM and 0.131 µM"}, {"measurement": "GI50", "setting": "SR leukemia", "value": "0.0053 µM and 0.0269 µM"}, {"measurement": "TGI", "setting": "SK-MEL-5 melanoma", "value": 0.164, "unit": "µM"}, {"measurement": "TGI", "setting": "T-47D breast", "value": 0.0707, "unit": "µM"}, {"measurement": "TGI", "setting": "RXF 393 renal", "value": 0.0425, "unit": "µM"}, {"measurement": "TGI", "setting": "A549 NSCLC", "value": 0.0253, "unit": "µM"}, {"measurement": "TGI", "setting": "CAKI-1 renal", "value": "0.125 µM and 0.0222 µM"}, {"measurement": "TGI", "setting": "NCI-H522 lung", "value": "0.038 µM and 0.11 µM"}, {"measurement": "TGI", "setting": "COLO 205 colon", "value": 0.0166, "unit": "µM"}, {"measurement": "TGI", "setting": "NCI-H23 lung", "value": "0.119 µM and 0.129 µM"}, {"measurement": "GI50", "setting": "SK-MEL-28 melanoma", "value": 0.257, "unit": "µM"}, {"measurement": "TGI", "setting": "SK-MEL-28 melanoma", "value": "0.175 µM and 0.927 µM"}, {"measurement": "TGI", "setting": "SF-268 CNS", "value": "0.156 µM and 0.127 µM"}, {"measurement": "GI50", "setting": "LOX IMVI melanoma", "value": 0.0264, "unit": "µM"}, {"measurement": "TGI", "setting": "LOX IMVI melanoma", "value": "0.16 µM and 0.234 µM"}, {"measurement": "GI50", "setting": "CCRF-CEM leukemia", "value": "< 0.001", "unit": "µM"}, {"measurement": "TGI", "setting": "MCF7 breast", "value": "0.0273 µM and 0.169 µM"}, {"measurement": "TGI", "setting": "MDA-MB-231 breast", "value": "0.105 µM and 0.0133 µM"}, {"measurement": "TGI", "setting": "KM12 colon", "value": "0.117 µM and 0.148 µM"}, {"measurement": "GI50", "setting": "UO-31 renal", "value": 0.0252, "unit": "µM"}, {"measurement": "TGI", "setting": "UO-31 renal", "value": "0.0846 µM and 0.175 µM"}, {"measurement": "GI50", "setting": "NCI/ADR-RES ovarian", "value": 0.0142, "unit": "µM"}, {"measurement": "TGI", "setting": "NCI/ADR-RES ovarian", "value": "0.0535 µM and 0.206 µM"}, {"measurement": "GI50", "setting": "IGROV1 ovarian", "value": 0.0303, "unit": "µM"}, {"measurement": "TGI", "setting": "IGROV1 ovarian", "value": "0.15 µM and 0.168 µM"}, {"measurement": "GI50", "setting": "SF-539 CNS", "value": 0.0307, "unit": "µM"}, {"measurement": "TGI", "setting": "SF-539 CNS", "value": "0.112 µM and 0.165 µM"}, {"measurement": "TGI", "setting": "TK-10 renal", "value": 0.0668, "unit": "µM"}, {"measurement": "GI50", "setting": "HS 578T breast", "value": 0.0115, "unit": "µM"}, {"measurement": "TGI", "setting": "HS 578T breast", "value": "0.192 µM and 0.246 µM"}, {"measurement": "GI50", "setting": "HOP-62 NSCLC", "value": 0.041, "unit": "µM"}, {"measurement": "TGI", "setting": "HOP-62 NSCLC", "value": "0.212 µM and 0.193 µM"}, {"measurement": "TGI", "setting": "HT29 colon", "value": "0.0161 µM and 0.0687 µM"}, {"measurement": "TGI", "setting": "DU-145 prostate", "value": "0.0769 µM and 0.123 µM"}, {"measurement": "TGI", "setting": "SN12C renal", "value": "0.0649 µM and 0.0906 µM"}, {"measurement": "TGI", "setting": "OVCAR-4 ovarian", "value": "0.248 µM and 0.0594 µM"}, {"measurement": "GI50", "setting": "SK-MEL-2 melanoma", "value": 0.0929, "unit": "µM"}, {"measurement": "TGI", "setting": "SK-MEL-2 melanoma", "value": "0.235 µM and 0.318 µM"}, {"measurement": "TGI", "setting": "A498 renal", "value": 0.0976, "unit": "µM"}, {"measurement": "TGI", "setting": "U251 CNS", "value": 0.0382, "unit": "µM"}, {"measurement": "TGI", "setting": "PC-3 prostate", "value": "0.136 µM and 0.159 µM"}, {"measurement": "TGI", "setting": "SK-OV-3 ovarian", "value": 0.134, "unit": "µM"}, {"measurement": "TGI", "setting": "BT-549 breast", "value": 0.168, "unit": "µM"}, {"measurement": "TGI", "setting": "786-0 renal", "value": "0.0234 µM and 0.0419 µM"}, {"measurement": "TGI", "setting": "MALME-3M melanoma", "value": 0.16, "unit": "µM"}, {"measurement": "TGI", "setting": "K-562 leukemia", "value": "> 100", "unit": "µM"}, {"measurement": "GI50", "setting": "MOLT-4 leukemia", "value": 0.0697, "unit": "µM"}, {"measurement": "TGI", "setting": "HCT-116 colon", "value": "0.0724 µM and 0.0739 µM"}, {"measurement": "GI50", "setting": "EKVX NSCLC", "value": 0.0624, "unit": "µM"}, {"measurement": "TGI", "setting": "EKVX NSCLC", "value": "0.122 µM and 0.237 µM"}, {"measurement": "TGI", "setting": "HCC-2998 colon", "value": "0.146 µM and 0.048 µM"}, {"measurement": "TGI", "setting": "OVCAR-8 ovarian", "value": "0.0241 µM and 0.146 µM"}, {"measurement": "GI50", "setting": "HL-60(TB) leukemia", "value": 0.113, "unit": "µM"}, {"measurement": "TGI", "setting": "HOP-92 NSCLC", "value": 0.00909, "unit": "µM"}, {"measurement": "TGI", "setting": "MDA-MB-435", "value": 0.142, "unit": "µM"}, {"measurement": "TGI", "setting": "ACHN renal", "value": "0.0323 µM and 0.119 µM"}, {"measurement": "GI50", "setting": "UACC-257 melanoma", "value": 0.0838, "unit": "µM"}, {"measurement": "TGI", "setting": "UACC-257 melanoma", "value": "0.17 µM and 0.31 µM"}, {"measurement": "GI50", "setting": "SNB-75 CNS", "value": 0.0145, "unit": "µM"}, {"measurement": "TGI", "setting": "SNB-75 CNS", "value": "0.131 µM and 0.0786 µM"}, {"measurement": "TGI", "setting": "SW-620 colon", "value": 0.0498, "unit": "µM"}]}
